Measured values: patent US20100210554A1, “THERAPEUTIC USES OF GASTRIN- 1 AND G- PEN-GRGDSPCA” (priority 2007, published 2010)

Columns and labels:
[1] = test system: hepatitis B virus (HBV) ayw strain; assay: HBV experimental assay system (HepG2-2.2.15, TaqMan PCR of secreted HBV DNA); assay type: cell-based; settings: 10 micrograms per ml, six days
TNF-a spleen cells = assay: Th1/Th2 cytokine profiling assay: TNF-a; assay type: cell-based, Balb/c mice; settings: 10 micrograms per ml; Ovalbumin restimulation; 72 hours
From the text: (§1) The Balb/c mice (originated in 1923, it is a popular strain and is used in many different research disciplines. Also classified as an inbred from the production of 20 or more successive brother-sister matings, the Balb/c mouse is albino and small in size) were immunized on Days 1, 15, and 29 with Ovalbumin (Ovalbumin is the main protein found in egg white, commonly used to stimulate an immunological reaction in test animals) in PBS (5 micrograms/injection). On day 50, spleens of the mice were harvested (3 weeks after last boost with Ovalbumin). […] Thereafter, additional Ovalbumin was added to the cells at 10 micrograms/ml for in vitro restimulation of the cells. 72 hours later, cell supernatants were harvested and assayed using the Becton Dickinson Mouse Th1/Th2 Cytokine CBA Kit. This kit can be used to measure Interleukin-2 (IL-2), Interleukin-4 (IL-4),
(§2) Interleukin-5 (IL-5), Interferon-γ (IFN-γ), and Tumor Necrosis Factor-α (TNF-α) protein levels in a single sample. The kit performance has been optimized for analysis of physiologically relevant concentrations (pg/ml levels) of specific cytokine proteins in tissue culture supernatants and serum samples.

IFNγ spleen cells = assay: Th1/Th2 cytokine profiling assay: IFNγ; assay type: cell-based, Balb/c mice; settings: 10 micrograms per ml; Ovalbumin restimulation; 72 hours
From the text: as §1, §2

IL-2 spleen cells = assay: Th1/Th2 cytokine profiling assay: IL-2; assay type: cell-based, Balb/c mice; settings: 10 micrograms per ml; Ovalbumin restimulation; 72 hours
From the text: as §1, §2

IL-4 spleen cells = assay: Th1/Th2 cytokine profiling assay: IL-4; assay type: cell-based, Balb/c mice; settings: 10 micrograms per ml; Ovalbumin restimulation; 72 hours
From the text: as §1, §2

IL-5 spleen cells = assay: Th1/Th2 cytokine profiling assay: IL-5; assay type: cell-based, Balb/c mice; settings: 10 micrograms per ml; Ovalbumin restimulation; 72 hours
From the text: as §1, §2

[2] = test system: Primary Human endothelial cells (HUVEC); assay: Endothelial cell migration assay; settings: 10 micrograms per ml, 22 hours
Protocol: Primary Human endothelial cells (HUVEC) were seeded in insert chambers with 3 micrometer pore size of multi-transwell plate for 6 hours at 37° C. in Endothelial Cell Basal Medium (EBM) supplemented with 0.1% bovine serum albumin. Thereafter, designated concentration of testing peptides—10 micrograms per ml—was added in duplicate wells. The endothelia were allowed to migrate for 22 hours at 37° C., then, migrated cells were fixed and stained with Hoechst 33342 dye. Images of 3 fields per insert were taken and the number of migrated cells per field were quantified using the ImageProPlus software. Data were analyzed for the average number of the migrated cells and standard deviation of six data points for each treatment condition. […] Statistic p values were computed using the Student's t-test.

HUVEC = assay: Endothelial tube formation assay; settings: 10 micrograms per ml, 20 hours, combination peptide 1:peptide 2 0.95 mole:1.05 mole
Protocol: The endothelial tube formation assay is based on the ability of endothelial cells to form three-dimensional capillary-like tubular structures when cultured on a gel of basement membrane extract. […] Pre-labeled HUVEC with Calcein AM were seeded in a 96-well culture plate coated with extracellular metrix (Chemicon international Cat. ECM625) and treated with test peptides—10 micrograms per ml—in full growth medium. Positive control was vehicle only. The endothelial cells were allowed to form tubes foe 20 hours and were then examined under an inverted fluorescent microscope. Duplicate wells for each treatment were photographed and quantitatevily analyzed for an average tubule length using image analysis software ImageProPlus. Raw data were expressed as average tubule lengths in pixels ±standard deviation. Statistic p values were computed using the Student's t-test.

HCMV strain AD169 = assay: HCMV plaque formation assay in MRC-5 cells; settings: for inhibition of HCMV plaque formation as compared to the virus control experiment: 10 micrograms per ml, 7-10 days
HIV-1IIIB = assay: HIV-1 antiviral assay in CEM-SS cells (MTS readout)

| Molecule | inhibition of HBV replication as compared to the virus control infection [1] | TNF-a spleen cells; TH1 response (% of control) (TNF-a spleen cells) | IFNγ spleen cells; TH1 response (% of control) (IFNγ spleen cells) | IL-2 spleen cells (% of control) (IL-2 spleen cells) | IL-4 spleen cells; TH2 response (% of control) (IL-4 spleen cells) | IL-5 spleen cells; TH2 response (% of control) (IL-5 spleen cells) | inhibition of the migration of human endothelial cells [2] | inhibition of the tube formation of endothelial cells (HUVEC) | inhibition of HCMV plaque formation as compared to the virus control experiment (HCMV strain AD169) | antiviral activity of positive control compound (HCMV) (HCMV strain AD169; positive control) | antiviral activity of positive control compounds (HIV-1) (HIV-1IIIB) |
| --- | --- | --- | --- | --- | --- | --- | --- | --- | --- | --- | --- |
| Pyr-Gly-Pro-Trp-Leu-Glu-Glu-Glu-Glu-Glu-Ala-Tyr-Gly-Trp-Met-Asp-Phe-NH2 [peptide 1] | 17.4% | 106.3 % of control | 52.4 % of control | 101.6 % of control | 61.5 % of control | 61.2 % of control | 30% | 35% | did not inhibit | – | – |
| Gly-Pen-Gly-Arg-Gly-Asp-Ser-Pro-Cys-Ala-OH [peptide 2] | 23.9% | 117.6 % of control | 77.3 % of control | 110.7 % of control | 117.2 % of control | 55.0 % of control | 51% | 22% | did not inhibit | – | – |
| Nc1nc(O)c2ncn(COC(CO)CO)c2n1 [Ganciclovir, reference compound] | – | – | – | – | – | – | – | – | – | expected levels of antiviral activity | – |
| CC(C)(C)NC(=O)[C@@H]1CN(Cc2cccnc2)CCN1C[C@@H](O)C[C@@H](Cc1ccccc1)C(=O)N[C@H]1c2ccccc2C[C@H]1O [indinavir] | – | – | – | – | – | – | – | – | – | – | expected levels of antiviral activity |
| Cc1cn([C@H]2C[C@H](N=[N+]=[N-])[C@@H](CO)O2)c(=O)[nH]c1=O [AZT] | – | – | – | – | – | – | – | – | – | – | expected levels of antiviral activity |
